Measurements as given in patent publication US20210035672A1, “METHOD AND […] FOR INDIVIDUALIZED ADMINISTRATION OF MEDICAMENTS FOR […] WITHIN A T[…]” (University Of Maryland, Baltimore, priority 2018, published 2021).

Experiments:
[1] = Population pharmacokinetics of vancomycin in neonates (hierarchical Bayesian one-compartment model); format: in vivo
Source text: Briefly, in step 305, a one-compartment linear disposition model with zero order input (one hour intravenous infusion) and first-order elimination was used to describe the data collected in step 301. In step 303 Weight (Wt) and estimated glomerular filtration rate (EGFR) were included as covariates on clearance (CL), and weight was included as covariate on volume of distribution (V). Back in step 305, a lognormal distribution was used to describe the between-subject-variability (BSV) in model parameter estimates CL and V, as expressed in Equation 8 and Equation 9.
where CLi and Vi are the true parameters for the individual, CLtypical and Vtypical are the population value of the parameters, and ηCL and ηv denote the deviation between the typical value of the parameters and the true parameter value of an individual. The coefficient that describes the relationship between EGFR and CLtypical is denoted by CLEGFR. […] In Table 1, PM indicates posterior median; LCI indicates lower credible interval; and UCI indicates upper credible interval. In other embodiments, based on different datasets or different training approaches, the parameter values are expected to differ to some degree.

[2] = cited from earlier work

**Q.** Which “Interindividual variability CL, posterior median” value ([1]; in vivo) does the source give for CN[C@H](CC(C)C)C(=O)N[C@H]1C(=O)N[C@@H](CC(N)=O)C(=O)N[C@H]2C(=O)N[C@H]3C(=O)N[C@H](C(=O)N[C@H](C(=O)O)c4cc(O)cc(O)c4-c4cc3ccc4O)[C@H](O)c3ccc(c(Cl)c3)Oc3cc2cc(c3O[C@@H]2O[C@H](CO)[C@@H](O)[C@H](O)[C@H]2O[C@H]2C[C@](C)(N)[C@H](O)[C@H](C)O2)Oc2ccc(cc2Cl)[C@H]1O [vancomycin] here?
**A.** 22.9 % CV

**Q.** And the “Interindividual variability V, posterior median” value ([1]; in vivo)?
**A.** 15.4 % CV

**Q.** What about the “Residual variability, proportional, posterior median” value ([1]; in vivo) of the same molecule?
**A.** 17.3 % CV

**Q.** And the “CLtypical, posterior median” value ([1]; typical individual 2.9 kg, estimated glomerular filtration rate of 30 mL/min per 1.73 m^2, one hour intravenous infusion)?
**A.** 0.167 L/h

**Q.** And the “patients with AUC0-24 hr exceeding 600” value ([2]; current practice)?
**A.** over 30%

**Q.** What about the final target attainment ([2]; with TDM) of the same molecule?
**A.** ~45%

**Q.** What about the “neonates that initially achieve recommended target concentrations” value ([2]; with dosing nomograms, studies across the US and Europe) of the same molecule?
**A.** 37%
